Results as given in publication PMC4476283 (Biochemistry, 2015).
≈ marks a conversion by molar mass, not a printed value. Marks after values point to notes of the source that are not given here.

How the values were obtained:
OXA-24/40 = conditions: ref Kaitany et al. [13], cited from earlier work; for Km: 50 mM NaH2PO4, 25 mM NaHCO3, pH 7.4, 25°C; for Ks (competition kinetics with ampicillin as reporter substrate): from IC50 by Cheng-Prusoff
OXA-225 (OXA-23 P225S) = OXA-225 (OXA-23 P225S) (Acinetobacter baumannii, UniProt Q9L4P2, P225S); assay: Steady-state kinetic analysis of β-lactam hydrolysis by OXA-225; type: biochemical; conditions: for kcat / Km / Ks (competition kinetics with ampicillin as reporter substrate): OXA-225; for Km: 50 mM NaH2PO4, 25 mM NaHCO3, pH 7.4, 25°C; for Ks (competition kinetics with ampicillin as reporter substrate): from IC50 by Cheng-Prusoff
OXA-23 = conditions: ref Kaitany et al. [13], cited from earlier work; for Km: 50 mM NaH2PO4, 25 mM NaHCO3, pH 7.4, 25°C; for Ks (competition kinetics with ampicillin as reporter substrate): from IC50 by Cheng-Prusoff
[1] = system: OXA-160 (OXA-24/40 P227S); type: biochemical, Acinetobacter baumannii; conditions: for kcat / Km / Ks (competition kinetics with ampicillin as reporter substrate): OXA-160; for Km: 50 mM NaH2PO4, 25 mM NaHCO3, pH 7.4, 25°C; for Ks (competition kinetics with ampicillin as reporter substrate): from IC50 by Cheng-Prusoff
[2] = system: A. baumannii strain that yielded OXA-160; conditions: A. baumannii strain from which OXA-160 was derived; cited from earlier work
[3] = conversion of OXA-24/40 to OXA-160

Question: Which Km (OXA-24/40) does the source give for `CC1(C)S[C@@H]2[C@H](NC(=O)[C@H](N)c3ccccc3)C(=O)N2[C@H]1C(=O)O` [Ampicillin, ampicillin] here?
Answer: 180 ± 20 µM

Question: And the kcat (OXA-24/40)?
Answer: 480 ± 20 s⁻¹

Question: What about the kcat (OXA-225 (OXA-23 P225S)) of the same compound?
Answer: 150 ± 10 s⁻¹

Question: And the Km (OXA-225 (OXA-23 P225S))?
Answer: 12 ± 1 µM

Question: What about the “gain (increase) in kcat/Km from the P→S substitution” value (OXA-225 (OXA-23 P225S); OXA-225 compared to OXA-23) of the same compound?
Answer: ~ 2 fold

Question: What about the Km (OXA-23) of the same compound?
Answer: 82 ± 9 µM

Question: And the kcat (OXA-23)?
Answer: 460 ± 10 s⁻¹

Question: And the kcat [1]?
Answer: 93 ± 2 s⁻¹

Question: What about the Km [1] of the same compound?
Answer: 13 ± 1 µM

Question: And the “gain in kcat/Km from the P→S substitution” value ([1]; OXA-160 compared to OXA-24/40)?
Answer: ~ 3 fold

Question: Which results are given for `C[C@H]1[C@H](NC(=O)/C(=N\OC(C)(C)C(=O)O)c2csc(N)n2)C(=O)N1S(=O)(=O)O` [Aztreonam, aztreonam]?
Answer: MIC [2]: 128 µg/mL (≈ 294 µM); Km (OXA-24/40): > 1500 µM; kcat (OXA-24/40): >0.3 s⁻¹; kcat (OXA-225 (OXA-23 P225S)): 0.79 ± 0.03 s⁻¹; Km (OXA-225 (OXA-23 P225S)): 13 ± 2 µM; Km (OXA-23): 2400 µM; kcat (OXA-23): 0.24 ± 0.01 s⁻¹; kcat [1]: 2.7 ± 0.2 s⁻¹

Question: For `CO/N=C(\C(=O)N[C@@H]1C(=O)N2C(C(=O)O)=C(COC(C)=O)CS[C@H]12)c1csc(N)n1` [Cefotaxime, cefotaxime], which Km (OXA-24/40) is on record?
Answer: 750 ± 70 µM

Question: What about the kcat (OXA-24/40) of the same compound?
Answer: 0.38 ± 0.01 s⁻¹

Question: And the kcat (OXA-225 (OXA-23 P225S))?
Answer: 3.2 ± 0.2 s⁻¹

Question: What about the Km (OXA-225 (OXA-23 P225S)) of the same compound?
Answer: 100 ± 20 µM

Question: And the Km (OXA-23)?
Answer: 340 ± 30 µM

Question: What about the kcat (OXA-23) of the same compound?
Answer: 5.5 ± 0.1 s⁻¹

Question: What about the kcat [1] of the same compound?
Answer: 0.41 ± 0.01 s⁻¹

Question: What about the Km [1] of the same compound?
Answer: 170 ± 5 µM

Question: What does the source list for `CC(C)(O/N=C(\C(=O)N[C@@H]1C(=O)N2C(C(=O)[O-])=C(C[n+]3ccccc3)CS[C@H]12)c1csc(N)n1)C(=O)O` [Ceftazidime, ceftazidime]?
Answer: hydrolytic activity (in words) (OXA-24/40): no activity; kcat (OXA-24/40): <0.02 s⁻¹; kcat (OXA-225 (OXA-23 P225S)): 1.4 ± 0.1 s⁻¹; Km (OXA-225 (OXA-23 P225S)): 1400 µM; hydrolytic activity (in words) (OXA-23): no activity; kcat (OXA-23): <0.02 s⁻¹; kcat [1]: >0.80 s⁻¹; Km [1]: > 3000 µM

Question: Which Km (OXA-24/40) does the source give for `CO/N=C(\C(=O)N[C@@H]1C(=O)N2C(C(=O)O)=C(CSc3nc(=O)c(=O)[nH]n3C)CS[C@H]12)c1csc(N)n1` [Ceftriaxone, ceftriaxone] here?
Answer: 110 ± 10 µM

Question: And the kcat (OXA-24/40)?
Answer: 0.035 ± 0.001 s⁻¹

Question: What about the kcat (OXA-225 (OXA-23 P225S)) of the same compound?
Answer: 0.051 ± 0.002 s⁻¹

Question: What about the “Ks (competition kinetics with ampicillin as reporter substrate)” value (“Ks” below) (OXA-225 (OXA-23 P225S)) of the same compound?
Answer: 0.48 ± 0.05 ^b µM

Question: And the Km (OXA-23)?
Answer: 5.4 ± 0.5 µM

Question: What about the kcat (OXA-23) of the same compound?
Answer: 0.021 ± 0.001 s⁻¹

Question: And the kcat [1]?
Answer: 0.24 ± 0.01 s⁻¹

Question: What about the Km [1] of the same compound?
Answer: 14 ± 0.8 µM

Question: What does the source list for `C[C@@H](O)[C@H]1C(=O)N2C(C(=O)O)=C(S[C@@H]3CN[C@H](CNS(N)(=O)=O)C3)[C@H](C)[C@H]12` [Doripenem, doripenem]?
Answer: Ks (competition kinetics with ampicillin as reporter substrate) (OXA-24/40): 0.024 ± 0.003 ^b µM; kcat (OXA-24/40): 0.074 ± 0.001 s⁻¹; kcat (OXA-225 (OXA-23 P225S)): 0.026 ± 0.002 s⁻¹; Ks (competition kinetics with ampicillin as reporter substrate) (OXA-225 (OXA-23 P225S)): 0.027 ± 0.005 ^b µM; Ks (competition kinetics with ampicillin as reporter substrate) (OXA-23): 0.018 ± 0.002 ^b µM; kcat (OXA-23): 0.028 ± 0.003 s⁻¹; kcat [1]: 0.064 ± 0.001 s⁻¹; Ks (competition kinetics with ampicillin as reporter substrate) [1]: 0.014 ± 0.003 ^b µM; increase in kcat/Km [1, 3]: 40%

Question: For `C[C@@H](O)[C@H]1C(=O)N2C(C(=O)O)=C(SCCN=CN)C[C@H]12` [Imipenem, imipenem], which “Ks” value (OXA-24/40) is on record?
Answer: 0.68 ± 0.09 ^b µM

Question: What about the kcat (OXA-24/40) of the same compound?
Answer: 2.1 ± 0.1 s⁻¹

Question: What about the kcat (OXA-225 (OXA-23 P225S)) of the same compound?
Answer: 0.39 ± 0.01 s⁻¹

Question: And the “Ks” value (OXA-225 (OXA-23 P225S))?
Answer: 0.20 ± 0.02 ^b µM

Question: And the “Ks” value (OXA-23)?
Answer: 0.20 ± 0.02 ^b µM

Question: What about the kcat (OXA-23) of the same compound?
Answer: 0.49 ± 0.01 s⁻¹

Question: What about the kcat [1] of the same compound?
Answer: 0.12 ± 0.01 s⁻¹

Question: What about the “Ks” value [1] of the same compound?
Answer: 0.043 ± 0.005 ^b µM

Question: And the “decrease in kcat/Km” value [1, 3]?
Answer: 10%

Question: With `CO/N=C(\C(=O)N[C@@H]1C(=O)N2C(C(=O)[O-])=C(C[N+]3(C)CCCC3)CS[C@H]12)c1csc(N)n1` [cefepime] as the compound, how does the MIC [2] read?
Answer: 64 µg/mL (≈ 133 µM)

Question: For `C[C@@H](O)[C@H]1C(=O)N2C(C(=O)O)=C(S[C@@H]3CN[C@H](C(=O)N(C)C)C3)[C@H](C)[C@H]12` [meropenem], which MIC [2] is on record?
Answer: 16 µg/mL (≈ 41.7 µM)
